Assay results taken from patent US10780061B2, “Composition comprising farnesol and use thereof” (Daegu Gyongbuk Institute of Science and Technology, priority 2014, dated 2020).

Columns and labels:
[1] = cited from earlier work
C2C12 myoblasts = assay: Immunoblot of PGC-1α and differentiation markers in farnesol-treated myoblasts; assay type: cell-based
Procedure: DMEM (Dulbecco's Modified Eagle Medium) supplemented with 10% fetal bovine serum is used as a growth medium for culture of C2C12 myoblasts, and DMEM supplemented with 2% horse serum is used as a differentiation medium for differentiation of muscle cells. To induce differentiation of C2C12 myoblasts into muscle cells, 0.1 μM farnesol dissolved in DMSO or various concentrations of farnesol (0.1, 1, 10, 100 uM) are added, and DMSO is only added to a control group. The cells are cultured for 48 hours to induce differentiation, and then a lysis buffer (20 mM Tris-HCl, pH 8, 150 mM NaCl, 1% Triton X, Proteinase Inhibitor) is added to the harvested cells to allow lysis for 30 minutes, followed by centrifugation at 13,000 rpm for 30 minutes. The amount of protein in the cell lysis sample is quantified and an equal amount of protein is subjected to 8% SDS-PAGE. The protein is transferred onto a PVDF membrane, and then incubated in a blocking buffer containing 5% skim milk for 1 hour. HRP (horseradish peroxidase)-conjugated rabbit antibodies specific to individual proteins, diluted in 5% BSA, are reacted with the membrane at 4° C. for 12 hours, and then the membrane is washed with a wash buffer for 5 minutes three times. Thereafter, the membrane is exposed to X-ray film using an ECL reagent (Roche) to confirm protein expression levels.

[2] = tested on: fibrosis-related genes TGF-β, Col A1, collagen A3, Timp2; assay: qRT-PCR of fibrosis-related genes in injured tibialis anterior muscle; assay type: in vivo; conditions: old mouse, CTX injury
Procedure: 25-month-old mice are fed with a control diet or a farnesol-containing diet for 2 weeks, and then 2 ul of 10 uM cardiotoxin (CTX) per body weight (g) is directly injected into the muscle to induce muscle injury. After 4 days, muscles are frozen and sectioned, followed by histological staining.
In addition, expressions of fibrosis-related genes, TGF-β, Col A1, collagen A3, and Timp2 in tibialis anterior muscle are analyzed by qRT-PCR as described above.

[3] = tested on: PARIS-overexpressing muscles; assay: SDH staining of PARIS-overexpressing tibialis anterior muscles; assay type: in vivo, mouse; conditions: 22-month-old mice, PARIS-GFP adenovirus in tibialis anterior muscle, 4 days
Procedure: Control-GFP adenovirus and PARIS-GFP adenovirus are injected into the tibialis anterior muscles of 22-month-old mice (female, body weight of 30 g), respectively. The old mice are fed with a predetermined diet, and 4 days later, muscles are collected and subjected to histological staining and qRT-PCR. For PARIS overexpression, human full-length PARIS cDNA (IMAGE: 30347892; Open Biosystems) (SEQ ID NO:9) is introduced into BamH1 and EcoR1 restriction sites of a viral vector, AAV/CBA-WPRE-bGHpA (containing chicken beta-actin (CBA) promoter and woodchuck hepatitis virus post-transcriptional-regulatory element (WPRE), and bovine growth hormone polyadenylation signal sequence) to prepare a full-length PARIS cDNA-containing AAV/CBA-WPRE-bGHpA vector, and this vector is introduced into the adenovirus-introduced cells. A high titer adenovirus […] is a viral vector manufactured by Viral Vector Core Facility (University of Iowa Carver College). Virus transduction efficiency is evaluated by GFP fluorescence. To evaluate PARIS overexpression and administration effect of farnesol, frozen sections of tibialis anterior muscles are stained for SDH enzyme activity.
Further, similar to the result in C2C12 myoblast models, an oxidative metabolism reduced by PARIS overexpression is also recovered by farnesol treatment in animal models. […]

AMPK and p38 MAPK = assay: Immunoblot of pAMPK and pp38 in farnesol-treated C2C12 myoblasts; assay type: cell-based; conditions: 0.1 μM farnesol, 48 hours
Procedure: The C2C12 myoblasts are cultured in DMEM containing 2% horse serum and 0.1 μM farnesol dissolved in DMSO for 48 hours. A control group is cultured in the same manner as above, except that only DMSO is added. Other culture conditions and immunoblot procedure are the same as those described in Section 1 of Example 2. PGC-1α, pAMPK, pp38 and basal forms thereof are subjected to immunoblotting.

[4] = tested on: Myh2a-positive muscle fibers; assay: Myh2a immunostaining of hind limb muscles, high fat diet (PGC-1α-inhibited) model; assay type: in vivo, mouse; conditions: high fat diet with 0.5% compound, 3 months
Text: To prepare the PGC-1α-inhibited model, 3-month-old mouse (female, body weight of 20 g) is fed with high fat diet, in which fat is increased to 60%, compared to a negative control group, for 5 days (short-term effect) or 3 months (long-term effect). The negative control group is fed with a general diet. Farnesol is mixed in the high fat diet at a content of 0.5% (weight of farnesol/weight of diet). A positive control group is fed with high fat diet containing a type II diabetes drug, metformin at a content of 0.5% (weight of metformin/weight of diet). Mice are fed with the general diet, the high fat diet, and the high fat diet containing farnesol or metformin for 3 months, and then hind limbs are removed to analyze muscle differentiation and mitochondrial enzyme activity.
In FIG. 6C, SD represents a standard diet as a negative control group, HFD represents a high fat diet, and HFD+Farnesol or HFD-metformin represents farnesol or metformin-added HFD, respectively.

[5] = 0.1-100 uM tested, from 0.1 to 10 uM, FIG. 1B
[6] = farnesol-treated myoblasts, FIG. 1A

CC(C)=CCC/C(C)=C/CC/C(C)=C/CO [farnesol, (2E,6E)-3,7,11-trimethyldodeca-2,6,10-trien-1-ol]
lethal dose (LD) for 50% mouse mortality [1]: 8,765 mg per mouse body weight (kg) | expression of MHC according to farnesol concentration (C2C12 myoblasts; [5]): increased in myoblasts in a farnesol concentration-dependent manner | expression of PGC-1α according to farnesol concentration (C2C12 myoblasts; [5]): increased in myoblasts in a farnesol concentration-dependent manner | expression of myogenin according to farnesol concentration (C2C12 myoblasts; [5]): increased in myoblasts in a farnesol concentration-dependent manner | increase in PGC-1α gene expression compared to control group (C2C12 myoblasts; farnesol-treated myoblasts, 48 hours, FIG. 1A): about 2.8 times | expression of myoblast determination protein (MyoD) (C2C12 myoblasts; [6]): increased | expression of myosin heavy chain (MHC) (C2C12 myoblasts; [6]): increased | expression of troponin T gene (C2C12 myoblasts; [6]): increased | expressions of fibrosis-related genes in injured tibialis anterior muscle [2]: significantly reduced | oxidative metabolism (SDH staining) reduced by PARIS overexpression [3]: recovered | pAMPK level (AMPK and p38 MAPK): does not affect | pp38 level (AMPK and p38 MAPK): does not affect | percentage of Myh2a-postive muscle fibers [4]: significantly increases
